According to ChEMBL document CHEMBL3991601, “The target landscape of clinical kinase drugs” (Science, 2017):
The source made the active and inactive calls. Rule as the data show it, for most assays here: actives have a measured Kd and inactives only a lower limit.

What was measured:
[1] = target: Ras-related protein Rab-6A (Homo sapiens, UniProt P20340)
TGF-beta receptor type-1 = target: T1, TGF-beta receptor type-1 (Homo sapiens, UniProt P36897)
T1 sequence (P36897 whole entry): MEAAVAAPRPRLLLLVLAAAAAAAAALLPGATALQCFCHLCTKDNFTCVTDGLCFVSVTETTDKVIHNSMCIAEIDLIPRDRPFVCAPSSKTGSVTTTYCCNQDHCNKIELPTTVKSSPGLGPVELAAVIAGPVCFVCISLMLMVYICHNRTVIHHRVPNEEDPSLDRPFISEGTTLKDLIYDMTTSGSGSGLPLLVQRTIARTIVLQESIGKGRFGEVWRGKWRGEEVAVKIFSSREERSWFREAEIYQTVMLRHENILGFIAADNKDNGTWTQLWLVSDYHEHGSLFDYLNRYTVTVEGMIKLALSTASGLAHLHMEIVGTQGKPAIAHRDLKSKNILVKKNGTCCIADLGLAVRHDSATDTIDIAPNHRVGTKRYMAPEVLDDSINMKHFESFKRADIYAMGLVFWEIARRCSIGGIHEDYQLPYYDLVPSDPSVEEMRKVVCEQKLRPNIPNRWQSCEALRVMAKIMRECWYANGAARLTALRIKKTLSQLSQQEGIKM

[2] = target: Maternal embryonic leucine zipper kinase (Homo sapiens, UniProt Q14680)
Chain of Maternal embryonic leucine zipper kinase (Q14680 whole entry): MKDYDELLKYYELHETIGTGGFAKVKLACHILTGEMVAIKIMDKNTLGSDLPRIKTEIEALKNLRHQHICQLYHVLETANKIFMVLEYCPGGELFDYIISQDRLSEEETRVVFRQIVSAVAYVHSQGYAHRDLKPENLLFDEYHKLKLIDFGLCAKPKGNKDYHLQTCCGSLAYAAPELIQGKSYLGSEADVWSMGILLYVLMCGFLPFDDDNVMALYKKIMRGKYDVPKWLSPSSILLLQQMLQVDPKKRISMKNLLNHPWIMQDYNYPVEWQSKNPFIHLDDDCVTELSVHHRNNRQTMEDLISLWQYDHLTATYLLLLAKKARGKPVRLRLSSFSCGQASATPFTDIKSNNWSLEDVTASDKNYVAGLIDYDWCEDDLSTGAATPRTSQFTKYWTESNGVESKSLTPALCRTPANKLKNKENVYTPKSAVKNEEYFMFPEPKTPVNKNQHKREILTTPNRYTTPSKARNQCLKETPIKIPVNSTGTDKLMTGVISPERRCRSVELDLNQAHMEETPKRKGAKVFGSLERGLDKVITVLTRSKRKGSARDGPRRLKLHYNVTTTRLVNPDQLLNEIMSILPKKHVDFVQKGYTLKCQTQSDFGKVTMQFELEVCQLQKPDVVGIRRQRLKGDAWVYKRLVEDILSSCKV

[3] = target: T2, Mitogen-activated protein kinase kinase kinase 3 (Homo sapiens, UniProt Q99759)
T2 sequence (Q99759 whole entry): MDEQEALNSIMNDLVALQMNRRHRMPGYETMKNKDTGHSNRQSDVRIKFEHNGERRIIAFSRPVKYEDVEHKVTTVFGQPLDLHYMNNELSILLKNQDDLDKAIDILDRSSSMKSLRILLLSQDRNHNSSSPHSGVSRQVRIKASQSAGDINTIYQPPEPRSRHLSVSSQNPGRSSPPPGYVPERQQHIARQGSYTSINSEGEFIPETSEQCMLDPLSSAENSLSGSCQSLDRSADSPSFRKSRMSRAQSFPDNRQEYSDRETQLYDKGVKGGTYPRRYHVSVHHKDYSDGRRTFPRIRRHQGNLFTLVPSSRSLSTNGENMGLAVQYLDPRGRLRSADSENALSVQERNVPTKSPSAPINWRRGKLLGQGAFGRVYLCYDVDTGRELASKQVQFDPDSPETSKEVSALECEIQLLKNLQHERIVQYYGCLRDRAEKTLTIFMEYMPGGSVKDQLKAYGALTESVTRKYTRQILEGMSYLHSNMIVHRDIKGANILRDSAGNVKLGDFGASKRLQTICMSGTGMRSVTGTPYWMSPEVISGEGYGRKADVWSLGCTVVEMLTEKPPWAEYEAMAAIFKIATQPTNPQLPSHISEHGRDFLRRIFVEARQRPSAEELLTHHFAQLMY

[4] = target: Calcium/calmodulin-dependent protein kinase type II subunit delta (Homo sapiens, UniProt Q13557)
Chain of Calcium/calmodulin-dependent protein kinase type II subunit delta (Q13557 whole entry): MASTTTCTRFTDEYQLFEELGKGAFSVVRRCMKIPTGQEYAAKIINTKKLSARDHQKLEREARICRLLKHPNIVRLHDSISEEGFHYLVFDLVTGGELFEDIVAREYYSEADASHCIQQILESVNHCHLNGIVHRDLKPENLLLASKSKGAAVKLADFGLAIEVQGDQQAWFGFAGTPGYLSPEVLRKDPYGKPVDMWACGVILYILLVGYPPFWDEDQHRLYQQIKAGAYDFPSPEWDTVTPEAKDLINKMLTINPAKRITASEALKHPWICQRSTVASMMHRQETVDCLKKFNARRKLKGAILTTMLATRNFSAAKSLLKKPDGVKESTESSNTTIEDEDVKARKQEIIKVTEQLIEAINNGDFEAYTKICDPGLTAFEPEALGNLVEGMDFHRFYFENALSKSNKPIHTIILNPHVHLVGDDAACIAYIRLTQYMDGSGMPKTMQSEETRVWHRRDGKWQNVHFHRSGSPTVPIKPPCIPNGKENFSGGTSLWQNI

[5] = target: T3, Mitogen-activated protein kinase kinase kinase 2 (Homo sapiens, UniProt Q9Y2U5)
T3 sequence (Q9Y2U5 whole entry): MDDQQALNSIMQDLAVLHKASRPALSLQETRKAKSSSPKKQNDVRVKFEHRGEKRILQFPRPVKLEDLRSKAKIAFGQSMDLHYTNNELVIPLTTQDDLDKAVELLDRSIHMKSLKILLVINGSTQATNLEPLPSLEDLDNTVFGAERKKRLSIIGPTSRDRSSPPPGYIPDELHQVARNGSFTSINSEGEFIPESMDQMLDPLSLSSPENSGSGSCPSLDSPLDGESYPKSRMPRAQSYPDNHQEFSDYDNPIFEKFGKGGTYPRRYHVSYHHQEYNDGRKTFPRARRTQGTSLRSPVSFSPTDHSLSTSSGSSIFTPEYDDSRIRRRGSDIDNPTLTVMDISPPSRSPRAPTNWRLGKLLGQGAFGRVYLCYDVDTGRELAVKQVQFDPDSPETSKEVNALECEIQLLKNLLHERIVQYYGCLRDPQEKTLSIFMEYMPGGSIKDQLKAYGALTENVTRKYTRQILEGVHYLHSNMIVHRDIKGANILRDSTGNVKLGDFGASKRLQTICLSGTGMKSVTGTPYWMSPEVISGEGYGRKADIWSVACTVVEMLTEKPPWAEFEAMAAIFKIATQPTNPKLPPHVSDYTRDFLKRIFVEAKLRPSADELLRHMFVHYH

[6] = target: MAP/microtubule affinity-regulating kinase 3 (Homo sapiens, UniProt P27448)
Chain of MAP/microtubule affinity-regulating kinase 3 (P27448 whole entry): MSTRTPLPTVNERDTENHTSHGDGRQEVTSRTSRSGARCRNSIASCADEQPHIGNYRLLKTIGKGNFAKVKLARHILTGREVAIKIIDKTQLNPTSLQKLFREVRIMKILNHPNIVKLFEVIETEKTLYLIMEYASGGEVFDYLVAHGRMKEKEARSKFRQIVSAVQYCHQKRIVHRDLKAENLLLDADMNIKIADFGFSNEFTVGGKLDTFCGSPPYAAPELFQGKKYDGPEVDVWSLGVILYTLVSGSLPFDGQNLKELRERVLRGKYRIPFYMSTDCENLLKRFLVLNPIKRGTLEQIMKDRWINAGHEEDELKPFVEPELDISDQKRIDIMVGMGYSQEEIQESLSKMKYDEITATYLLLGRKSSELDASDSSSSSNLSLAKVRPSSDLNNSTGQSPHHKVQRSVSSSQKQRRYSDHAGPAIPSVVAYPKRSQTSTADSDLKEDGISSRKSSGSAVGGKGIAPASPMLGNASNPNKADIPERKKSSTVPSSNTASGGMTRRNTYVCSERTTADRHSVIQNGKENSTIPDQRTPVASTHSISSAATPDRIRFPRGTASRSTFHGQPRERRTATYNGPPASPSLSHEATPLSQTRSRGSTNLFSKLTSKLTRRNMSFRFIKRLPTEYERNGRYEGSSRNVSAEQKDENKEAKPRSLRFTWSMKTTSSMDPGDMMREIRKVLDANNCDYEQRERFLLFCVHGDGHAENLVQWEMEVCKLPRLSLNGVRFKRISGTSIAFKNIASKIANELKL

[7] = target: T4, Interleukin-1 receptor-associated kinase 3 (Homo sapiens, UniProt Q9Y616)
T4 sequence (Q9Y616 whole entry): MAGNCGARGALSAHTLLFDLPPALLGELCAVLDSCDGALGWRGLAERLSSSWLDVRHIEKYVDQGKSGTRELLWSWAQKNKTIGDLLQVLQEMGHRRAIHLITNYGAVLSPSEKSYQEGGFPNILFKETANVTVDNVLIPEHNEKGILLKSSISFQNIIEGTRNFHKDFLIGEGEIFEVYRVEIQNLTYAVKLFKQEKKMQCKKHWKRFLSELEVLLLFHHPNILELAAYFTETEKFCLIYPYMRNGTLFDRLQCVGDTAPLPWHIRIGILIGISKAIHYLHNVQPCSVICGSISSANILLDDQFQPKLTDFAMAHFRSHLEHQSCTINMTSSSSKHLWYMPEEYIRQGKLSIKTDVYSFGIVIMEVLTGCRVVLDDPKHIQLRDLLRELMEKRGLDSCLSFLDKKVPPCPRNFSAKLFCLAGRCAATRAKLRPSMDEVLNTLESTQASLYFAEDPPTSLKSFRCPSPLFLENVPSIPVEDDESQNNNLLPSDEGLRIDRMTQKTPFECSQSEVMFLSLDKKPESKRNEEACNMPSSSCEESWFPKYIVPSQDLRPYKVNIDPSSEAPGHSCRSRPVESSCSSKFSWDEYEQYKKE

[8] = target: Interleukin-1 receptor-associated kinase 1 (Homo sapiens, UniProt P51617)
Chain of Interleukin-1 receptor-associated kinase 1 (P51617 whole entry): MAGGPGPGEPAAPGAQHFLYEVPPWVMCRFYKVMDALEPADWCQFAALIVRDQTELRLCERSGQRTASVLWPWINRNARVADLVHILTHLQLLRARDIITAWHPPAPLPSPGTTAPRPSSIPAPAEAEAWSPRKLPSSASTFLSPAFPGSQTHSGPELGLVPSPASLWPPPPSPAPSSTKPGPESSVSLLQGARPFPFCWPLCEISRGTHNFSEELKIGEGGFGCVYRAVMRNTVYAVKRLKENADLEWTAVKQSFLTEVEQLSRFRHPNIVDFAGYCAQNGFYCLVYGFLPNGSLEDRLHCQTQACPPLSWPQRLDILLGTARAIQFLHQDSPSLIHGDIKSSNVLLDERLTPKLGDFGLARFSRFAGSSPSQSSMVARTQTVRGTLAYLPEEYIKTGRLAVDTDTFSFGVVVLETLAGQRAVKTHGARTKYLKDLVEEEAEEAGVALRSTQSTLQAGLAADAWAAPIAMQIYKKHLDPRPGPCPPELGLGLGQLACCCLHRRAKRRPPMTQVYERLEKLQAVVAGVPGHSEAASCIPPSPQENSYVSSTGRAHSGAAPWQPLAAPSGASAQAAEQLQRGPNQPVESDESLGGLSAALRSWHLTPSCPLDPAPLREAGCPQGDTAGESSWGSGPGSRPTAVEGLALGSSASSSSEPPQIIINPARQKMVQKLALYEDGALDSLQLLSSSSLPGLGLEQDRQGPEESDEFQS
Also: in the data inactive means no Kd found up to 30 µM.

Chain of Ras-related protein Rab-6A (P20340 whole entry): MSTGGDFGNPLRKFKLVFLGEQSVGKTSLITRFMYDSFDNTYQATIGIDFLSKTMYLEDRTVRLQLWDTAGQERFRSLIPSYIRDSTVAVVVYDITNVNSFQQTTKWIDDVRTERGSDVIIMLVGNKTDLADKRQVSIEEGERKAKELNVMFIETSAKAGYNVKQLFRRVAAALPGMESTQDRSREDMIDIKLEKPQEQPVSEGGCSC

Kd [1] | Kd (TGF-beta receptor type-1) | Kd [2] | Kd [3] | Kd [4] | Kd [5] | Kd [6] | Kd [7] | Kd [8] | SMILES
> 30 µM (inactive) | > 30 µM (inactive) | > 30 µM (inactive) | > 30 µM (inactive) | > 30 µM (inactive) | > 30 µM (inactive) | > 30 µM (inactive) | > 30 µM (inactive) | > 30 µM (inactive) | Cc1cc([C@@H](C)Nc2ccccc2C(=O)O)c2nc(N3CCOCC3)cc(=O)n2c1 [AZD-6482]
> 30 µM (inactive) | > 30 µM (inactive) | > 30 µM (inactive) | > 30 µM (inactive) | > 30 µM (inactive) | > 30 µM (inactive) | > 30 µM (inactive) | > 30 µM (inactive) | > 30 µM (inactive) | COc1ccc(-c2ccc3c(N4CCOC[C@@H]4C)nc(N4CCOC[C@@H]4C)nc3n2)cc1CO [AZD-8055]
> 30 µM (inactive) | > 30 µM (inactive) | > 30 µM (inactive) | > 30 µM (inactive) | > 30 µM (inactive) | > 30 µM (inactive) | > 30 µM (inactive) | > 30 µM (inactive) | > 30 µM (inactive) | C[C@@H](Nc1cc(F)cc(F)c1)c1cc(C(=O)N(C)C)cc2c(=O)cc(N3CCOCC3)oc12 [AZD-8186]
> 30 µM (inactive) | > 30 µM (inactive) | > 30 µM (inactive) | > 30 µM (inactive) | 0.312 µM (active) | > 30 µM (inactive) | 0.104 µM (active) | > 30 µM (inactive) | > 30 µM (inactive) | CCS(=O)(=O)N1CC(CC#N)(n2cc(-c3ncnc4[nH]ccc34)cn2)C1 [BARICITINIB]
> 30 µM (inactive) | > 30 µM (inactive) | > 30 µM (inactive) | > 30 µM (inactive) | > 30 µM (inactive) | > 30 µM (inactive) | > 30 µM (inactive) | > 30 µM (inactive) | > 30 µM (inactive) | Cc1cc2c(F)c(Oc3ncnn4cc(OC[C@@H](C)OC(=O)[C@H](C)N)c(C)c34)ccc2[nH]1 [BRIVANIB ALANINATE]
> 30 µM (inactive) | > 30 µM (inactive) | > 30 µM (inactive) | > 30 µM (inactive) | > 30 µM (inactive) | > 30 µM (inactive) | > 30 µM (inactive) | > 30 µM (inactive) | > 30 µM (inactive) | CCc1cnn2c(NCc3ccc[n+]([O-])c3)cc(N3CCCC[C@H]3CCO)nc12 [DINACICLIB]
> 30 µM (inactive) | > 30 µM (inactive) | > 30 µM (inactive) | > 30 µM (inactive) | > 30 µM (inactive) | > 30 µM (inactive) | > 30 µM (inactive) | > 30 µM (inactive) | 0.247 µM (active) | COC(=O)N[C@@H](C)CNc1nccc(-c2cn(C(C)C)nc2-c2cc(Cl)cc(NS(C)(=O)=O)c2F)n1 [ENCORAFENIB]
> 30 µM (inactive) | > 30 µM (inactive) | > 30 µM (inactive) | > 30 µM (inactive) | > 30 µM (inactive) | > 30 µM (inactive) | > 30 µM (inactive) | > 30 µM (inactive) | > 30 µM (inactive) | CO[C@H]1C[C@@H]2CC[C@@H](C)[C@@](O)(O2)C(=O)C(=O)N2CCCC[C@H]2C(=O)O[C@H]([C@H](C)C[C@@H]2CC[C@@H](OCCO)[C@H](OC)C2)CC(=O)[C@H](C)/C=C(\C)[C@@H](O)[C@@H](OC)C(=O)[C@H](C)C[C@H](C)/C=C/C=C/C=C/1C [EVEROLIMUS]
> 30 µM (inactive) | > 30 µM (inactive) | > 30 µM (inactive) | > 30 µM (inactive) | > 30 µM (inactive) | > 30 µM (inactive) | > 30 µM (inactive) | > 30 µM (inactive) | > 30 µM (inactive) | COCCNCc1ccc(-c2cc3nccc(Oc4ccc(NC(=S)NC(=O)Cc5ccc(F)cc5)cc4F)c3s2)nc1 [GLESATINIB]
> 30 µM (inactive) | > 30 µM (inactive) | > 30 µM (inactive) | > 30 µM (inactive) | > 30 µM (inactive) | > 30 µM (inactive) | > 30 µM (inactive) | 8.67 µM (active) | > 30 µM (inactive) | O=C1NC(=O)/C(=C/c2ccc3nccc(-c4ccncc4)c3c2)S1 [GSK-1059615]
> 30 µM (inactive) | > 30 µM (inactive) | > 30 µM (inactive) | > 30 µM (inactive) | > 30 µM (inactive) | > 30 µM (inactive) | > 30 µM (inactive) | > 30 µM (inactive) | > 30 µM (inactive) | CC[C@H](Nc1ncnc2[nH]cnc12)c1nc2cccc(F)c2c(=O)n1-c1ccccc1 [IDELALISIB]
> 30 µM (inactive) | > 30 µM (inactive) | > 30 µM (inactive) | > 30 µM (inactive) | > 30 µM (inactive) | > 30 µM (inactive) | > 30 µM (inactive) | > 30 µM (inactive) | > 30 µM (inactive) | Cn1cc(-c2ccc3nnc(C(F)(F)c4ccc5ncccc5c4)n3n2)cn1 [JNJ-38877605]
> 30 µM (inactive) | > 30 µM (inactive) | > 30 µM (inactive) | > 30 µM (inactive) | > 30 µM (inactive) | > 30 µM (inactive) | > 30 µM (inactive) | > 30 µM (inactive) | > 30 µM (inactive) | Cc1c(F)cc(C(=O)NC2CC2)cc1-c1ccc(C(=O)NCC(C)(C)C)cn1 [LOSMAPIMOD]

SMILES | Kd [1] | Kd (TGF-beta receptor type-1) | Kd [2] | Kd [3] | Kd [4] | Kd [5] | Kd [6] | Kd [7] | Kd [8]
O=C(c1ccc(F)c(F)c1Nc1ccc(I)cc1F)N1CC(O)([C@@H]2CCCCN2)C1 [COBIMETINIB] | > 30 µM (inactive) | > 30 µM (inactive) | > 30 µM (inactive) | > 30 µM (inactive) | > 30 µM (inactive) | > 30 µM (inactive) | > 30 µM (inactive) | > 30 µM (inactive) | > 30 µM (inactive)
COC(=O)[C@@]1(O)C[C@H]2O[C@]1(C)n1c3ccccc3c3c4c(c5c6ccccc6n2c5c31)C(=O)NC4 [K-252A] | > 30 µM (inactive) | 2.18 µM (active) | 0.083 µM (active) | > 30 µM (inactive) | 0.19 µM (active) | 4.12 µM (active) | 0.384 µM (active) | 0.254 µM (active) | > 30 µM (inactive)
